Assay [1] deals with T1, purified recombinantly expressed human SSAO (Homo sapiens, UniProt Q16853).
T1 construct: made in house
T1 sequence (Q16853 1-763): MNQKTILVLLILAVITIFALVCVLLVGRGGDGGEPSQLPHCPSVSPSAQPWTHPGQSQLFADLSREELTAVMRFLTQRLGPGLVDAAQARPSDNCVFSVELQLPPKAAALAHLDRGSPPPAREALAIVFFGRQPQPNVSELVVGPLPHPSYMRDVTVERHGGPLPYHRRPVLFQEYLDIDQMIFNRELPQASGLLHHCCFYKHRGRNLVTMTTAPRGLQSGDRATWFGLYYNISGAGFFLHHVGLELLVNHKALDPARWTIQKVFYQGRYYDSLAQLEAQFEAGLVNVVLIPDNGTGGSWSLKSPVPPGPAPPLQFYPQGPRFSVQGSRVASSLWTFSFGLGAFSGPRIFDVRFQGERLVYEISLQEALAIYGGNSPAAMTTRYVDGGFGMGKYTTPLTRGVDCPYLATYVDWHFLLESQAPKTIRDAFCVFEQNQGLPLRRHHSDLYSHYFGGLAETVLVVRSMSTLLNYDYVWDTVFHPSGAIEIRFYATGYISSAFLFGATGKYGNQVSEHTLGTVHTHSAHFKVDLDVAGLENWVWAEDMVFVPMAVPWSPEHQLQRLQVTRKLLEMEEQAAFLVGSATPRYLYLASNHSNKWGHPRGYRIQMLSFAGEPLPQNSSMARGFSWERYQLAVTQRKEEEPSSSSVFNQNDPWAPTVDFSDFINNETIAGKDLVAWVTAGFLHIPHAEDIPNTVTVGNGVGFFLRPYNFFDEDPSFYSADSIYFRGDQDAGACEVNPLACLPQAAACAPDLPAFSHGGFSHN
In words: SSAO enzyme inhibition assay (benzylamine substrate; hydrogen peroxide/HRP-coupled or 14C aldehyde detection). Type of assay: biochemical. The note with it: SSAO inhibitory activity, RT. The method, boiled down:
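IC50 values came from a four-parameter logistic fit of % signal decrease versus DMSO control, with no-enzyme background subtracted. Two read-outs were used with human recombinant SSAO after ~15 min compound pre-incubation at RT. In the H2O2/HRP-Amplex read-out, enzyme was 1 ug/ml and benzylamine 100 uM (pH 7.4 phosphate), with resorufin fluorescence followed 1-2 h. In the 14C-benzaldehyde read-out (PBS), enzyme was 10 ug/ml and benzylamine 40 uM, run 1 h then acid-stopped.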

Assay [2] concerns the target T2, human ether a go-go related gene (hERG) K+ channel (Homo sapiens, UniProt Q12809).
T2 construct: a Chinese Hamster Lung cell line stably expressing the full length hERG channel; expressed in transfected cells; host or cells: Chinese Hamster Lung cell line
The assay can be described thus: hERG assay, IonWorks patch clamp electrophysiology. Type of assay: cell-based. The note with it: Chinese Hamster Lung cell line stably expressing hERG; max assay concentration 11 uM. The method, then: Compounds of the invention were tested for inhibition of the human ether a go-go related gene (hERG) K^+ channel using IonWorks patch clamp electrophysiology. 8 Point concentration-response curves were generated on two occasions using 3-fold serial dilutions from the maximum assay concentration (11 uM). Electrophysiological recordings were made from a Chinese Hamster Lung cell line stably expressing the full length hERG channel. Single cell ion currents were measured in the perforated patch clamp configuration (100 ug/mL amphoterocin) at room temperature using an IonWorks Quattro instrument. The internal solution contained 140 mM KCl, 1 mM MgCl2, 1 mM EGTA and 20 mM HEPES and was buffered to pH 7.3. The external solution contained 138 mM NaCl, 2.7 mM KCl, 0.9 mM CaCl2, 0.5 mM MgCl2, 8 mM Na2HPO4 and 1.5 mM KH2PO4, and was buffered to pH 7.3. […] This sequence was repeated 5 times at a frequency of 0.25 Hz. Currents were measured from the tail step at the 5th pulse, and referenced to the holding current. Compounds were incubated for 6-7 min prior to a second measurement of the hERG signal using an identical pulse train. […] A control compound (quinidine) was used (see Table 20 below).
In general terms: Block of hERG is tested as a sign of cardiac risk.

T2 sequence (Q12809 whole entry): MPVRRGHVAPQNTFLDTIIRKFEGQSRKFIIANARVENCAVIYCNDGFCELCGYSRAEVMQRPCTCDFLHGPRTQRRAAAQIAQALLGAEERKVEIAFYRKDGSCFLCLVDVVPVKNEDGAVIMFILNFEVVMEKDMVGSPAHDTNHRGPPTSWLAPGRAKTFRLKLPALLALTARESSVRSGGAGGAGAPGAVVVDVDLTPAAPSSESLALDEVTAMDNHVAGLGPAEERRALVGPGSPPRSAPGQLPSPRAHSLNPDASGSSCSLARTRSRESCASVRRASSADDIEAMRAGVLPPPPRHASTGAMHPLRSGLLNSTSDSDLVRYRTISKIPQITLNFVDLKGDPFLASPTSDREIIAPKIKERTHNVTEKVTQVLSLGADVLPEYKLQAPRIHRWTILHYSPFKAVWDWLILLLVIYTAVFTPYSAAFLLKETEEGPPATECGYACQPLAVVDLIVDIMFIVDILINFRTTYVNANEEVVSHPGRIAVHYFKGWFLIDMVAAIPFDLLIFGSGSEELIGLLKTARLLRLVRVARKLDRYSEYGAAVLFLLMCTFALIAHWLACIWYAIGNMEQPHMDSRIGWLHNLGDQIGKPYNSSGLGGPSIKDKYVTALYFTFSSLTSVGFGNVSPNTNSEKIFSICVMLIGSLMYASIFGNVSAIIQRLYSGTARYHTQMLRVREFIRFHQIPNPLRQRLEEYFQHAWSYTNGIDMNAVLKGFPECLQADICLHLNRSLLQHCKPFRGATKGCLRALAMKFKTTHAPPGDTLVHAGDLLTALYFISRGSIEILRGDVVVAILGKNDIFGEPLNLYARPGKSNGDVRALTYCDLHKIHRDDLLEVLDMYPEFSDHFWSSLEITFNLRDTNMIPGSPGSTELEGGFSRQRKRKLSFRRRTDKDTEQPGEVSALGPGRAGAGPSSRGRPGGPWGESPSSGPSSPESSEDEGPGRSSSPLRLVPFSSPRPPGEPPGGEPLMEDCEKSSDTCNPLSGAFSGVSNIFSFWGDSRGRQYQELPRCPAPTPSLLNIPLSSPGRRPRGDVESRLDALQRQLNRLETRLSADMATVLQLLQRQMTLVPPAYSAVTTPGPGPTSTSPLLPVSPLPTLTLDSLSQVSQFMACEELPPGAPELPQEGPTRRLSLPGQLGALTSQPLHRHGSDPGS

By IC50 is commonly meant the point on the concentration scale where inhibition reaches its midpoint. As to `Clc1ccc(-n2c(-c3cnc(NC4CCOCC4)nc3)nc3ccncc32)cc1` [Example 11, 5-[3-(4-Chlorophenyl)-3H-imidazo[4,5-c]pyridin-2-yl]-N-(oxan-4-yl)pyrimidin-2-amine; bis(trifluoroacetic acid)], the IC50 is below 0.05 µM in assay [1] and above 10 µM in assay [2].
With `Nc1ccc(-c2nc3ccncc3n2-c2ccc(Cl)cc2)cn1` [Example 110, 5-[3-(4-Chlorophenyl)-3H-imidazo[4,5-c]pyridin-2-yl]pyridin-2-amine], the IC50 was 0.2 to 1.2 µM in assay [1] and above 10 µM in assay [2].
`CS(=O)(=O)N1CCN(c2ccc(-c3nc4ccncc4n3-c3ccc(F)cc3)cn2)CC1` [Example 89, 1-{5-[3-(4-Fluorophenyl)-3H-imidazo[4,5-c]pyridin-2-yl]pyridin-2-yl}-4-methanesulfonylpiperazine]: the values for the IC50 in assay [1] and in assay [2] were below 0.05 µM and above 10 µM, respectively.
On to `Clc1ccc(-n2c(-c3cnc(NC4CCOCC4)nc3)cc3ccncc32)cc1` [Example 139, 5-[1-(4-Chlorophenyl)-1H-pyrrolo[2,3-c]pyridin-2-yl]-N-(oxan-4-yl)pyrimidin-2-amine], for which the IC50 is below 0.05 µM in assay [1] and 0.1 to 1 µM in assay [2].
For `Clc1ccc(-n2c(-c3ccncc3)cc3ccncc32)cc1` [Example 120, 4-[1-(4-Chlorophenyl)-1H-pyrrolo[2,3-c]pyridin-2-yl]pyridine] the same measures were 0.2 to 1.2 µM and 1 to 10 µM.
As for `CS(=O)(=O)NC1CCN(c2ccc(-c3nc4ccncc4n3-c3ccc(Cl)cc3)cn2)CC1` [Example 88, N-(1-{5-[3-(4-Chlorophenyl)-3H-imidazo[4,5-c]pyridin-2-yl]pyridin-2-yl}piperidin-4-yl)methanesulfonamide], the IC50 is below 0.05 µM in assay [1] and 1 to 10 µM in assay [2].
`Fc1ccc(-n2c(-c3cnc(N4CCCC4)nc3)nc3ccncc32)cc1` [Example 69, 5-[3-(4-Fluorophenyl)-3H-imidazo[4,5-c]pyridin-2-yl]-2-(pyrrolidin-1-yl)pyrimidine]: the IC50 in assay [1] was below 0.05 µM; in assay [2], above 10 µM.
With `COCCN(C)c1ncc(-c2nc3ccncc3n2-c2ccc(C)cc2)cn1` [Example 117, N-(2-Methoxyethyl)-N-methyl-5-[3-(4-methylphenyl)-3H-imidazo[4,5-c]pyridin-2-yl]pyrimidin-2-amine], the IC50 in assay [1] was 0.2 to 1.2 µM; in assay [2] it was above 10 µM.
For `Cc1ccc(-n2c(-c3ccc(N4CCOCC4)nc3)nc3ccncc32)cc1` [Example 63, 4-{5-[3-(4-Methylphenyl)-3H-imidazo[4,5-c]pyridin-2-yl]pyridin-2-yl}morpholine] the same measures were 0.2 to 1.2 µM and above 10 µM.
For `Cc1ccc(-n2c(-c3ccc(N4CCOCC4)nc3)nc3ccncc32)cn1` [Example 64, 4-{5-[3-(6-Methylpyridin-3-yl)-3H-imidazo[4,5-c]pyridin-2-yl]pyridin-2-yl}morpholine] the same measures were 0.2 to 1.2 µM and above 10 µM.
For the molecule `Fc1ccc(-n2c(-c3cnc(N4CCOCC4)c(F)c3)nc3ccncc32)cc1` [Example 98, 4-{3-Fluoro-5-[3-(4-fluorophenyl)-3H-imidazo[4,5-c]pyridin-2-yl]pyridin-2-yl]morpholine], the IC50 in assay [1] was 0.05 to 0.2 µM; in assay [2], above 10 µM.
Turning to `Cc1ccc(-n2c(-c3cnc(N4CCOCC4)nc3)nc3ccncc32)c(F)c1` [Example 53, 4-{5-[3-(2-Fluoro-4-methylphenyl)-3H-imidazo[4,5-c]pyridin-2-yl]pyrimidin-2-yl}morpholine], the IC50 in assay [1] was 0.2 to 1.2 µM; in assay [2], above 10 µM.
For `Cc1cc(N2CCOCC2)ncc1-c1nc2ccncc2n1-c1ccc(F)cc1` [Example 21, 4-{5-[3-(4-Fluorophenyl)-3H-imidazo[4,5-c]pyridin-2-yl]-4-methylpyridin-2-yl}morpholine] the same measures were below 0.05 µM and above 10 µM.
Take `CN(C)c1ccc(-c2nc3ccncc3n2-c2ccc(F)cc2)cn1` [Example 71, 5-[3-(4-Fluorophenyl)-3H-imidazo[4,5-c]pyridin-2-yl]-N,N-dimethylpyridin-2-amine]: the IC50 in assay [1] is 0.2 to 1.2 µM; in assay [2], above 10 µM.
As to `NC(=O)NC1CCN(c2ccc(-c3nc4ccncc4n3-c3ccc(Cl)cc3)cn2)CC1` [Example 91, (1-{5-[3-(4-Chlorophenyl)-3H-imidazo[4,5-c]pyridin-2-yl]pyridin-2-yl}piperidin-4-yl)urea; bis(trifluoroacetic acid)], the IC50 in assay [1] was 0.2 to 1.2 µM; in assay [2], above 10 µM.
Turning to `Clc1ccc(-n2c(-c3cccnc3)cc3ccncc32)cc1` [Example 122, 3-[1-(4-Chlorophenyl)-1H-pyrrolo[2,3-c]pyridin-2-yl]pyridine], the values for the IC50 in assay [1] and in assay [2] were 0.05 to 0.2 µM and 1 to 10 µM, respectively.
For `Fc1cc(Cl)ccc1-n1c(-c2cnc(N3CCOCC3)nc2)nc2ccncc21` [Example 77, 4-{5-[3-(4-Chloro-2-fluorophenyl)-3H-imidazo[4,5-c]pyridin-2-yl]pyrimidin-2-yl}morpholine] the same measures were 0.2 to 1.2 µM and above 10 µM.
For `Clc1ccc(-n2c(-c3ccncc3Cl)cc3ccncc32)cc1` [Example 153, 3-Chloro-4-[1-(4-chlorophenyl)-1H-pyrrolo[2,3-c]pyridin-2-yl]pyridine] the same measures were 0.05 to 0.2 µM and 1 to 10 µM.
As for `Clc1ccc(-n2c(-c3cnc(N4CCOCC4)nc3)nc3ccncc32)nc1` [Example 75, 4-{5-[3-(5-Chloropyridin-2-yl)-3H-imidazo[4,5-c]pyridin-2-yl]pyrimidin-2-yl}morpholine; tris(trifluoroacetic acid)], the IC50 in assay [1] is below 0.05 µM; in assay [2] it was above 10 µM.
On to `CN1CCN(Cc2ccc(-c3nc4ccncc4n3-c3ccc(Cl)cc3)cc2)CC1` [Example 46, 1-({4-[3-(4-Chlorophenyl)-3H-imidazo[4,5-c]pyridin-2-yl]phenyl}methyl)-4-methylpiperazine; formic acid], for which the values for the IC50 in assay [1] and in assay [2] were below 0.05 µM and above 10 µM, respectively.
Consider `Clc1ccc(-n2c(-c3ccc(CN4CCOCC4)nc3)cc3ccncc32)cc1` [Example 140, 4-({5-[1-(4-Chlorophenyl)-1H-pyrrolo[2,3-c]pyridin-2-yl]pyridin-2-yl}methyl)morpholine], for which the results for the IC50 in assay [1] and in assay [2] were below 0.05 µM and 1 to 10 µM, respectively.
Take `Fc1ccc(-n2c(-c3cnc(N4CCOCC4)nc3)nc3ccncc32)c(F)c1` [Example 78, 4-{5-[3-(2,4-Difluorophenyl)-3H-imidazo[4,5-c]pyridin-2-yl]pyrimidin-2-yl}morpholine]: the IC50 in assay [1] was below 0.05 µM; in assay [2] it was above 10 µM.
For `CC(=O)N1CCN(c2ccc(-c3nc4ccncc4n3-c3ccc(F)cc3)cn2)CC1` [Example 86, 1-(4-{5-[3-(4-Fluorophenyl)-3H-imidazo[4,5-c]pyridin-2-yl]pyridin-2-yl}piperazin-1-yl)ethan-1-one] the same measures were below 0.05 µM and above 10 µM.
For `Nc1cc(-c2cc3ccncc3n2-c2ccc(Cl)cc2)ccn1` [Example 147, 4-[1-(4-Chlorophenyl)-1H-pyrrolo[2,3-c]pyridin-2-yl]pyridin-2-amine] the same measures were below 0.05 µM and 1 to 10 µM.
For `Clc1ccc(-n2c(-c3ccc(N4CCOCC4)nc3)nc3ccncc32)nc1` [Example 81, 4-{5-[3-(5-Chloropyridin-2-yl)-3H-imidazo[4,5-c]pyridin-2-yl]pyridin-2-yl}morpholine] the same measures were below 0.05 µM and above 10 µM.

The record behind these values is patent US20150258101A1 (Proximagen Limited, priority 2014, published 2015).
